Test [1] deals with T1, S1P1 receptor (S1P1 expressing RH7777 membranes) (Homo sapiens, UniProt P21453).
T1 construct: expressed in transfected cells; host or cells: RH7777 cells (membranes)
Put plainly: S1P1 GTPγS assay. In kind it is biochemical. Particulars: tested in one of the above S1P1 assays (two GTPγS formats). In outline: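 Membranes from RH7777 cells expressing human S1P1 (1.5 μg/well) precoupled 30 min on ice to WGA SPA beads in 20 mM HEPES pH 7.4, 10 mM MgCl2, 100 mM NaCl, with 10 μM GDP and 90 μg/ml saponin. [35S]-GTPγS 0.5 nM final added with compound; SPA signal read immediately.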

The target in test [2] is T2, S1P1 (PathHunter CHO-K1 EDG1 β-Arrestin cell line) (Homo sapiens, UniProt P21453).
T2 construct: host or cells: PathHunter CHO-K1 EDG1 β-Arrestin cell line
T2 sequence (P21453 whole entry): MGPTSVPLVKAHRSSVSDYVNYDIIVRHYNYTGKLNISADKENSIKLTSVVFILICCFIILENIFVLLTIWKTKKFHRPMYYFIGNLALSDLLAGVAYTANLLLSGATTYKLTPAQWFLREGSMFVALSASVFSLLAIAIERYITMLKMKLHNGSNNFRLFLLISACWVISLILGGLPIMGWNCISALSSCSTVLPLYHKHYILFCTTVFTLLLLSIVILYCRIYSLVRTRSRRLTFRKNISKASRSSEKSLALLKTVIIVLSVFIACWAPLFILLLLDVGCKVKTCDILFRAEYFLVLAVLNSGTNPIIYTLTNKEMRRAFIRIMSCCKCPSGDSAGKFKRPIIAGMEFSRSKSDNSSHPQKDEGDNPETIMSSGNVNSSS
T2 sequence (P32121 whole entry partner): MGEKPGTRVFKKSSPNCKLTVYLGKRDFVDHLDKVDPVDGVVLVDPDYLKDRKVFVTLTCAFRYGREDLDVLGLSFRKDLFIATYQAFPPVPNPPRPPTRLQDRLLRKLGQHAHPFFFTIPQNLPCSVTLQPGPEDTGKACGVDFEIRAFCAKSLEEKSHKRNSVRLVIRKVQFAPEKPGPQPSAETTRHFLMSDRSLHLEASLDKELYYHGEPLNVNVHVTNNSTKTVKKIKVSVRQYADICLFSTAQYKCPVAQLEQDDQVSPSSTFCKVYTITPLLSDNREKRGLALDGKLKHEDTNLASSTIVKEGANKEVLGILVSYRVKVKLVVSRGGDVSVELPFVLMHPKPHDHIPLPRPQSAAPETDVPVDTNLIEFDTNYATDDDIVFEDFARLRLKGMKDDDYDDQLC
In words: S1P-1 β-Arrestin recruitment assay. It is filed as cell-based. Conditions: CHO-K1 EDG1 β-Arrestin cells, chemi-luminescence. The procedure: S1P-1 β-Arrestin Recruitment Assay
β-Arrestin recruitment assays were carried out using the PathHunter CHO-K1 EDG1
β-Arrestin cell line (DiscoveRx Corporation) in a chemi-luminescence detection assay. This cell line stably expresses β-Arrestin 2 and S1P1 fused to complementing portions of β-galactosidase (‘EA’ and ‘pro-link’, respectively) which associate upon Arrestin recruitment to form functional β-galactosidase enzyme.
Cells were grown to 80% confluency in Growth Medium (F12 nutrient HAMS supplemented with 10% heat-inactivated USA FBS, 1% L-glutamax, 800 μg/ml Geneticin and 300 μg/ml Hygromycin). Cells were harvested from the flask using Enzyme Free Cell Dissociation Buffer (Gibco) and washed from flasks with Optimem solution (Gibco). Cells were then centrifuged at 1000 rpm for 2-3 min and resuspended in Assay Buffer (Prepared from Sigma kit H1387 supplemented with 20 ml/L HEPES, 4.7 ml/L NaHCO3, 0.1% pluronic acid F-68 solution, 0.1% BSA and adjusted to pH 7.4 using sodium hydroxide at 1×10^6 cells/ml. Cells were dispensed into assay plates containing compounds (100n1/well of a solution of test compound in 100% DMSO) at 1×10^4 cells/well and incubated at 37° C./5% CO2 for 90 min followed by 15 min at room temperature. 5 μl detection mix (1 part Galacton Star, 5 parts Emerald II, 19 parts Assay Buffer; DiscoveRx) were added per well and the plates incubated at room temperature for 60 min. Luminescence was quantified using a Viewlux plate reader.
(Activated receptors often draw arrestin, which recruitment assays turn into a signal.)

SMILES strings stand for the structures. Where a name gives a salt, the structure may show the parent alone.

T1 sequence (P21453 whole entry): as the sequence (P21453 whole entry) above

As a reminder, the EC50 is the concentration that produces a half-maximal response. Read a high EC50 as weaker potency. In the case of `CC(C)Oc1ccc(-c2nc(-c3ccc4c(c3)CCN(CC(=O)N[C@@H](C)CO)CC4)no2)cc1C#N` [Example 80, 2-[7-(5-{3-cyano-4-[(1-methylethyl)oxy]phenyl}-1,2,4-oxadiazol-3-yl)-1,2,4,5-tetrahydro-3H-3-benzazepin-3-yl]-N-[(1S)-2-hydroxy-1-methylethyl]acetamide hydrochloride], the EC50 was at most 100 nM in test [1] and at most 10 nM in test [2].

In the case of `Cc1c(-c2noc(-c3ccc(OC(C)C)c(C#N)c3)n2)ccc2c1CCN(C[C@@H](O)CO)CC2` [Example 154, 5-(3-{3-[(2R)-2,3-dihydroxypropyl]-6-methyl-2,3,4,5-tetrahydro-1H-3-benzazepin-7-yl}-1,2,4-oxadiazol-5-yl)-2-[(1-methylethyl)oxy]benzonitrile hydrochloride], the concentration giving a half-maximal response (EC50) in test [1] and in test [2] was at most 100 nM in each case.

Take `Cc1c(-c2noc(-c3ccc(OC(C)C)c(C#N)c3)n2)ccc2c1CCN(C[C@@H](O)CO)C2` [Example 73, 5-(3-{2-[(2R)-2,3-dihydroxypropyl]-5-methyl-1,2,3,4-tetrahydro-6-isoquinolinyl}-1,2,4-oxadiazol-5-yl)-2-[(1-methylethyl)oxy]benzonitrile hydrochloride]: the EC50 in test [1] is at most 100 nM; in test [2], at most 10 nM.

Turning to `CC(C)Oc1ccc(-c2nc(-c3ccc4c(c3)CCN(C(=O)CCN)CC4)no2)cc1C#N` [Example 69, 5-[3-(3-β-alanyl-2,3,4,5-tetrahydro-1H-3-benzazepin-7-yl)-1,2,4-oxadiazol-5-yl]-2-[(1-methylethyl)oxy]benzonitrile], the EC50 is at most 100 nM in test [1] and at most 10 nM in test [2].

Consider `CCNC(=O)NCCN1CCc2ccc(-c3noc(-c4ccc(OC(C)C)c(C#N)c4)n3)cc2CC1` [Example 105, N-{2-[7-(5-{3-cyano-4-[(1-methylethyl)oxy]phenyl}-1,2,4-oxadiazol-3-yl)-1,2,4,5-tetrahydro-3H-3-benzazepin-3-yl]ethyl}-N′-ethylurea], for which the values for the EC50 in test [1] and in test [2] were at most 10 nM and at most 100 nM, respectively.

For the compound `CC(C)Oc1ccc(-c2nc(-c3ccc4c(c3)CCN(C(=O)CN)CC4)no2)cc1C#N` [Example 48, 5-[3-(3-glycyl-2,3,4,5-tetrahydro-1H-3-benzazepin-7-yl)-1,2,4-oxadiazol-5-yl]-2-[(1-methylethyl)oxy]benzonitrile trifluoroacetate], the EC50 in test [1] and in test [2] was at most 10 nM throughout.

As to `Cc1c(-c2noc(-c3ccc(OC(C)C)c(C#N)c3)n2)ccc2c1CCN(C(=O)CCN)C2` [Example 39, 5-[3-(2-β-Alanyl-5-methyl-1,2,3,4-tetrahydro-6-isoquinolinyl)-1,2,4-oxadiazol-5-yl]-2-[(1-methylethyl)oxy]benzonitrile hydrochloride], the EC50 in test [1] was at most 100 nM; in test [2] it was at most 10 nM.

For `CC(C)Oc1ccc(-c2nc(-c3ccc4c(c3)CCN(C[C@@H](O)CO)CC4)no2)cc1C#N` [Example 74, 5-(3-{3-[(2R)-2,3-dihydroxypropyl]-2,3,4,5-tetrahydro-1H-3-benzazepin-7-yl}-1,2,4-oxadiazol-5-yl)-2-[(1-methylethyl)oxy]benzonitrile], the EC50 in test [1] and in test [2] was at most 100 nM in each case.

On to `Cc1c(-c2noc(-c3ccc(OC(C)C)c(C#N)c3)n2)ccc2c1CCN(CC(=O)NC(CO)CO)CC2` [Example 186, 2-[7-(5-{3-cyano-4-[(1-methylethyl)oxy]phenyl}-1,2,4-oxadiazol-3-yl)-6-methyl-1,2,4,5-tetrahydro-3H-3-benzazepin-3-yl]-N-[2-hydroxy-1-(hydroxymethyl)ethyl]acetamide], for which the EC50 in test [1] was at most 100 nM; in test [2], at most 10 nM.

Take `Cc1c(-c2noc(-c3cnc(OC(C)C)c(C#N)c3)n2)ccc2c1CCN(C[C@@H](O)CO)C2` [Example 133]: the EC50 in test [1] and in test [2] was at most 100 nM each time.

Take `Cc1c(-c2noc(-c3ccc(OC(C)C)c(C#N)c3)n2)ccc2c1CCN(C(=O)[C@@](C)(N)CO)C2` [Example 82, 2-[(1-methylethyl)oxy]-5-{3-[5-methyl-2-(2-methyl-L-seryl)-1,2,3,4-tetrahydro-6-isoquinolinyl]-1,2,4-oxadiazol-5-yl}benzonitrile]: the EC50 in test [1] was at most 1000 nM; in test [2], at most 100 nM.

Consider `Cc1c(-c2noc(-c3ccc(OC(C)C)c(C#N)c3)n2)ccc2c1CCN(C[C@H](O)CO)C2` [Example 71, 5-(3-{2-[(2S)-2,3-dihydroxypropyl]-5-methyl-1,2,3,4-tetrahydro-6-isoquinolinyl}-1,2,4-oxadiazol-5-yl)-2-[(1-methylethyl)oxy]benzonitrile hydrochloride], for which the EC50 in test [1] and in test [2] was at most 100 nM throughout.

Take `Cc1c(-c2noc(-c3ccc(OC(C)C)c(C#N)c3)n2)ccc2c1CCN(C[C@H](O)CO)CC2` [Example 153, 5-(3-{3-[(2S)-2,3-dihydroxypropyl]-6-methyl-2,3,4,5-tetrahydro-1H-3-benzazepin-7-yl}-1,2,4-oxadiazol-5-yl)-2-[(1-methylethyl)oxy]benzonitrile hydrochloride]: the EC50 in test [1] and in test [2] was at most 100 nM in each case.

As for `CC(C)Oc1ccc(-c2nc(-c3cccc4c3CCN(C(=O)[C@@H](N)CO)C4)no2)cc1C#N` [Example 89, 2-[(1-methylethyl)oxy]-5-[3-(2-L-seryl-1,2,3,4-tetrahydro-5-isoquinolinyl)-1,2,4-oxadiazol-5-yl]benzonitrile hydrochloride], the EC50 in test [1] was 1 nM; in test [2], at most 10 nM.

Take `Cc1c(-c2noc(-c3ccc(OC(C)C)c(C#N)c3)n2)ccc2c1CCN(CC(=O)N[C@@H](C)CO)CC2` [Example 158, 2-[7-(5-{3-cyano-4-[(1-methylethyl)oxy]phenyl}-1,2,4-oxadiazol-3-yl)-6-methyl-1,2,4,5-tetrahydro-3H-3-benzazepin-3-yl]-N-[(1S)-2-hydroxy-1-methylethyl]acetamide]: the EC50 was at most 100 nM in test [1] and at most 10 nM in test [2].

For the compound `Cc1c(-c2noc(-c3ccc(OC(C)C)c(C#N)c3)n2)ccc2c1CCN(C(=O)CNC(CO)CO)CC2` [Example 189, 5-[3-(3-{N-[2-hydroxy-1-(hydroxymethyl)ethyl]glycyl}-6-methyl-2,3,4,5-tetrahydro-1H-3-benzazepin-7-yl)-1,2,4-oxadiazol-5-yl]-2-[(1-methylethyl)oxy]benzonitrile], the EC50 in test [1] was at most 100 nM; in test [2], at most 10 nM.

Turning to `Cc1c(-c2noc(-c3ccc(OC(C)C)c(C#N)c3)n2)ccc2c1CCN(CC(=O)NC[C@H](C)O)CC2` [Example 148, 2-[7-(5-{3-cyano-4-[(1-methylethyl)oxy]phenyl}-1,2,4-oxadiazol-3-yl)-6-methyl-1,2,4,5-tetrahydro-3H-3-benzazepin-3-yl]-N-[(2S)-2-hydroxypropyl]acetamide], the EC50 in test [1] is at most 100 nM; in test [2], at most 10 nM.

With `Cc1c(-c2nnc(-c3ccc(OC(C)C)c(C#N)c3)s2)ccc2c1CCN(CCC(N)=O)C2` [Example 10, 3-[6-(5-{3-Cyano-4-[(1-methylethyl)oxy]phenyl}-1,3,4-thiadiazol-2-yl)-5-methyl-3,4-dihydro-2(1H)-isoquinolinyl]propanamide], the figures for the EC50 in test [1] and in test [2] were at most 100 nM and at most 10 nM, respectively.

Take `CC(C)Oc1ccc(-c2nc(-c3ccc4c(c3)CCN(CC(=O)NCCO)CC4)no2)cc1C#N` [Example 111, 2-[7-(5-{3-cyano-4-[(1-methylethyl)oxy]phenyl}-1,2,4-oxadiazol-3-yl)-1,2,4,5-tetrahydro-3H-3-benzazepin-3-yl]-N-(2-hydroxyethyl)acetamide hydrochloride]: the concentration for a half-maximal effect (EC50) is at most 100 nM in test [1] and at most 10 nM in test [2].

For the compound `N#Cc1cc(-c2nc(-c3ccc4c(c3)CCN(C(=O)CN)CC4)no2)ccc1OC(CF)CF` [Example 54, 2-{[2-fluoro-1-(fluoromethyl)ethyl]oxy}-5-[3-(3-glycyl-2,3,4,5-tetrahydro-1H-3-benzazepin-7-yl)-1,2,4-oxadiazol-5-yl]benzonitrile], the EC50 in test [1] is at most 100 nM; in test [2], at most 10 nM.

The compound `Cc1c(-c2noc(-c3ccc(OC(C)C)c(Cl)c3)n2)ccc2c1CCN(C(=O)CNC(CO)CO)C2` [Example 190, 2-({2-[6-(5-{3-chloro-4-[(1-methylethyl)oxy]phenyl}-1,2,4-oxadiazol-3-yl)-5-methyl-3,4-dihydro-2(1H)-isoquinolinyl]-2-oxoethyl}amino)-1,3-propanediol hydrochloride] gave an EC50 in test [2] of at most 100 nM.

The record behind these values is patent publication US20120101083A1, “S1P1 AGONISTS COMPRISING A BICYCLIC N-CONTAINING RING” (GLAXO GROUP LIMITED, priority 2009, published 2012).
